From patent publication US6649603B2, “Cyclylamine sulfonamides as β3-adrenergic receptor agonists” (Wyeth, priority 2000, dated 2003) come the findings set out here.

Series [1] addresses T1, human β3 adrenergic receptor (Homo sapiens, UniProt P13945).
T1 construct: Full length β3 AR clones (402 amino acids) containing the last 6 amino acids of hβ3_AR are prepared; expressed in transfected cells; host or cells: CHO cells
Description: cAMP accumulation (SPA) in CHO cells transfected with human β3 adrenergic receptor. The class given is cell-based. To be noted: for pEC50 / beta-3 IA (maximal response relative to isoproterenol at 10^-5 M): CHO cells, cAMP; for pEC50: 30 min incubation, read-out: beta-3 EC50; for beta-3 IA (maximal response relative to isoproterenol at 10^-5 M): fraction of maximal isoproterenol response. On the procedure:
(§1) The ability of compounds of this invention to treat or inhibit disorders related to insulin resistance or hyperglycemia was established with representative compounds of this invention in the following standard pharmacological test procedures, which measured the binding selectivity to the β1, β2, and β3 adrenergic receptors. Binding to the receptors was measured in Chinese Hamster ovary (CHO) cells that were transfected with adrenergic receptors. The following briefly summarizes the procedures used and results obtained.
Cloning of Human β3-AR Genomic DNA: cDNA was constructed by ligating four polymerase chain reaction (PCR) products using the following primers: an ATG-NarI fragment, sense primer 5′-[…]3′ and anti-sense primer 5′[…]3′; a NarI-AccI fragment, 5′[…]3′ as sense and 5′[…]3′ as anti-sense primer; an Accli-Styl fragment, sense primer 5′[…]3′ and anti-sense primer 5′[…]3′ and a Styl-TAG fragment, with sense primer 5′[…]3′ and anti-sense primer 5′[…]3′. The corresponding primer sequences are described in Mantzoros, C. S., et.al., Diabetes 45: 909-914 (1996). The four fragments are ligated into a pUC 18 plasmid (Gibco-BRL) and sequenced. Full length β3 AR clones (402 amino acids) containing the last 6 amino acids of hβ3_AR are prepared with the β3-βARpcDNA3 from ATTC.
(§2) Binding Procedure: Clones expressing receptor levels of 70 to 110 fmoles/mg protein were used in the test procedures. CHO cells were grown in 24-well tissue culture plates in Dulbecco's Modified Eagle Media with 10% fetal bovine serum, MEM non-essential amino acids, Penicillin-Streptompycin and Geneticin. On the day of test procedure, growth medium was replaced with preincubation media (Dulbecco's Modified Eagle Media and incubated for 30 minutes at 37° C. Preincubation medium was replaced with 0.2 ml treatment medium containing DMEM media containing 250 μM IBMX (isobutyl-1-methylxantine) plus 1 mM ascorbic acid with test compound dissolved in DMSO. Test compounds were tested over a concentration range of 10^−9 M to 10^−5 M for β3 cells and 10^−8 to 10^−4 M for β1 and β2 transfected cells. Isoproterenol (10^−5 M) was used as an internal standard for comparison of activity. Cells were incubated at 37° C. on a rocker for 30 min with the β3 cells and 15 min for […]. Incubation was stopped with the addition of 0.2N HCl and neutralized with 2.5N NaOH. The plates, containing the cells and neutralized media, were stored at −20 degrees celsius until ready to test for cAMP using the SPA test kit (Amersham).
(§3) Data Analysis and Results: Data collected from the SPA test procedure were analyzed as per cent of the maximal isoproterenol response at 10^−5 M. Activity curves were plotted using the SAS statistical and graphics software. EC50 values were generated for each compound and the maximal response (IA) developed for each compound is compared to the maximal response of isoproternol at 10^−5 M from the following formula: [formula]

Series [2] concerns the target T2, human β1-adrenergic receptor (Homo sapiens, UniProt P08588).
T2 construct: expressed in transfected cells; host or cells: CHO cells
Description: cAMP accumulation (SPA) in CHO cells transfected with human β1 adrenergic receptor. As to conditions: for beta-1 IA (maximal response relative to isoproterenol at 10^-5 M): fraction of maximal isoproterenol response. The class given is cell-based. How it is done:
as §1
(§4) Transfection of CHO cells with β1 and β2 adrenergic receptors: CHO cells were transfected with human β1- or β2-adrenergic receptors as described in Tate, K. M., Eur. J. Biochem., 196:357-361 (1991).
as §2, §3

Series [3] deals with T3, human β2-adrenergic receptor (Homo sapiens, UniProt P07550).
T3 construct: expressed in transfected cells; host or cells: CHO cells
In words: cAMP accumulation (SPA) in CHO cells transfected with human β2 adrenergic receptor. It counts as cell-based. As to conditions: for beta-2 IA (maximal response relative to isoproterenol at 10^-5 M): fraction of maximal isoproterenol response. On the procedure:
as §1, §4, §2, §3

pEC50: −log10 of the molar value.

T3 sequence (P07550 whole entry): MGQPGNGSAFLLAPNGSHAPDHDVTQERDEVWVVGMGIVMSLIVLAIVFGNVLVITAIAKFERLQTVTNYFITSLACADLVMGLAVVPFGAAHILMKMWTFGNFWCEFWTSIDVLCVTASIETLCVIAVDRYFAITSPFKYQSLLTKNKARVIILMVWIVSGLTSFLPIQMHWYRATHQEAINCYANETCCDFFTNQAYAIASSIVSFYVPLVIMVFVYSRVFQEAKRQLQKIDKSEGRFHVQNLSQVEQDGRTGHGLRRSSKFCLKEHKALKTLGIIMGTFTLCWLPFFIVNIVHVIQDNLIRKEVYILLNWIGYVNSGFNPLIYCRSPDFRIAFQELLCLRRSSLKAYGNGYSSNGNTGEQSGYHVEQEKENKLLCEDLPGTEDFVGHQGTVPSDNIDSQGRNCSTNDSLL
T1 sequence (P13945 whole entry): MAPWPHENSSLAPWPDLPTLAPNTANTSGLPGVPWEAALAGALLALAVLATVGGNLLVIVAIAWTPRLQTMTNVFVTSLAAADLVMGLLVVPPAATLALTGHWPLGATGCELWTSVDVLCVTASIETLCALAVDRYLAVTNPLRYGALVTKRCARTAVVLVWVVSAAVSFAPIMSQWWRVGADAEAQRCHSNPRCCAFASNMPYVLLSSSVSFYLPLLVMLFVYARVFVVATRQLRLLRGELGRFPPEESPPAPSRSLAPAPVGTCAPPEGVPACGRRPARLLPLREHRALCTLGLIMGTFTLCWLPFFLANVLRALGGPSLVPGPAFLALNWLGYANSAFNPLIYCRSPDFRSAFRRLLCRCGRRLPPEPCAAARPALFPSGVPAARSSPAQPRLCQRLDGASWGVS
T2 sequence (P08588 whole entry): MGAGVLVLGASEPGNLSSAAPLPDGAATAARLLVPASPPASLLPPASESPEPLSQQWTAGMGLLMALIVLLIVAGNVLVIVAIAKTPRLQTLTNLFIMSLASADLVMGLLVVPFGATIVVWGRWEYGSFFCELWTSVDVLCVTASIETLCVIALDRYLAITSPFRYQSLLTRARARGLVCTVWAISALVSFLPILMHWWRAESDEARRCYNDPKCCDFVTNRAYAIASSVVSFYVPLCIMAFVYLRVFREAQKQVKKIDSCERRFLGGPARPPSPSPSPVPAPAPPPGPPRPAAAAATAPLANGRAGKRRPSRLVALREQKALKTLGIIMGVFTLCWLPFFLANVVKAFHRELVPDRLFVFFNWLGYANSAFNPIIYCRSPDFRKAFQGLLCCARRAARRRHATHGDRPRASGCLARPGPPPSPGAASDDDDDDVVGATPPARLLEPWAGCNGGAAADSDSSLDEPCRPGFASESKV

`CCCCOc1ccc(S(=O)(=O)N2CCC(NC[C@H](O)COc3cccc4[nH]c5ccccc5c34)C2)cc1` (stereo partly drawn) [Example 7, (2S)-1-[1-(4-Butoxy-benzenesulfonyl)-pyrrolidin-3-ylamino]-3-(9H-carbazol-4-yloxy)-propan-2-ol] displayed a melting point of 118 to 119 °C.

With `CCCCOc1ccc(S(=O)(=O)N2CCC(NC[C@H](O)COc3cccc4[nH]c(=O)[nH]c34)CC2)cc1` [Example 9, 4-((2S)-3-[1-(4-Butoxy-benzenesulfonyl)-piperidin-4-ylamino]-2-hydroxy-propoxy}-1,3-dihydro-benzoimidazol-2-one], in series [1], the negative-log EC50 (pEC50) was 6.30 and the “beta-3 IA (maximal response relative to isoproterenol at 10^-5 M)” value was determined as 0.8.

The molecule `CCCCOc1ccc(S(=O)(=O)N2CCC(NCC(O)c3ccc(O)c(NS(C)(=O)=O)c3)C2)cc1` (stereo not shown) [Example 6, N-(5-{2-[1-(4-Butoxy-benzenesulfonyl)-pyrrolidin-3-ylamino]-1-hydroxy-ethyl}-2-hydroxy-phenyl)-methanesulfonamide] displayed a melting point of 95 to 98 °C.

In the case of `CCCCOc1ccc(S(=O)(=O)N2CCC(NC[C@H](O)COc3cccc4[nH]c5ccccc5c34)CC2)cc1` [Example 14, (2S)-1-[1-(4-Butoxy-benzenesulfonyl)-piperidin-4-ylamino]-3-(9H-carbazol-4-yloxy)-propan-2-ol], the “beta-1 IA (maximal response relative to isoproterenol at 10^-5 M)” value in series [2] was “(0.04)”. In series [1], the pEC50 is 6.07 and the “beta-3 IA (maximal response relative to isoproterenol at 10^-5 M)” value was determined as 0.74. Moreover, the “beta-2 IA (maximal response relative to isoproterenol at 10^-5 M)” value in series [3] was “(0.07)”.

As for `COc1ccc(S(=O)(=O)N2CCC(NC[C@H](O)COc3cccc4[nH]c5ccccc5c34)CC2)cc1OC` [Example 21, (2S)-1-(9H-Carbazol-4-yloxy)-3-[1-(3,4-dimethoxy-benzenesulfonyl)-piperidin-4-ylamino]-propan-2-ol], in series [2], the “beta-1 IA (maximal response relative to isoproterenol at 10^-5 M)” value is given as “(0.1)”. Further, in series [1], the negative logarithm of the EC50 (pEC50) was 7.70 and the “beta-3 IA (maximal response relative to isoproterenol at 10^-5 M)” value is reported as 1.2. The “beta-2 IA (maximal response relative to isoproterenol at 10^-5 M)” value in series [3] is given as “(0.02)”.

The molecule `CCCCOc1ccc(S(=O)(=O)N2CC(NCC(O)c3ccc(O)c(NS(C)(=O)=O)c3)C2)cc1` (stereo not shown) [Example 5, N-(5-{2-[1-(4-Butoxy-benzenesulfonyl)-azetidin-3-ylamino]-1-hydroxy-ethyl)-2-hydroxy-phenyl)-methanesulfonamide] showed a melting point of 67 to 70 °C. The “beta-3 activity at single concentration” value in series [1] (at 10 μM, per cent of maximal isoproterenol response) came to 78% at 10 μM.

In the case of `CCCCOc1ccc(S(=O)(=O)N2CC(NCC(O)COc3cccc4[nH]c5ccccc5c34)C2)cc1` (stereo not shown) [Example 3, 1-[1-(4-Butoxy-benzenesulfonyl)-azetidin-3-ylamino]-3-(9H-carbazol-4-yloxy)-propan-2-ol], the melting point was 81 to 84 °C.

`O=c1[nH]c2cccc(OC[C@@H](O)CNC3CCN(S(=O)(=O)c4cccc5nsnc45)CC3)c2[nH]1` [Example 8, 4-{(2S)-3-[1-(Benzo[1,2,5]thiadiazole-4-sulfonyl)-piperidin-4-ylamino]-2-hydroxy-propoxy}-1,3-dihydro-benzoimidazol-2-one]: in series [1], the pEC50 is 6.10 and the “beta-3 IA (maximal response relative to isoproterenol at 10^-5 M)” value is recorded as 0.75.

For the molecule `COc1ccc(S(=O)(=O)N2CCC(NC[C@H](O)COc3cccc4[nH]c(=O)[nH]c34)CC2)cc1OC` [Example 20, 4-{(2S)-3-[1-(3,4-Dimethoxy-benzenesulfonyl)-piperidin-4-ylamino]-2-hydroxy-propoxy}-1,3-dihydro-benzoimidazol-2-one], the “beta-1 IA (maximal response relative to isoproterenol at 10^-5 M)” value in series [2] is reported as “(0.3)”. Besides, in series [1], the pEC50 was 7.10 and the “beta-3 IA (maximal response relative to isoproterenol at 10^-5 M)” value is 0.87. Also, the “beta-2 IA (maximal response relative to isoproterenol at 10^-5 M)” value in series [3] is “(0.01)”.

On to `COc1ccc(S(=O)(=O)N2CCC(NC[C@H](O)COc3cccc4[nH]c5ccccc5c34)CC2)cc1` [Example 15, (2S)-1-(9H-Carbazol-4-yloxy)-3-[1-(4-methoxy-benzenesulfonyl)-piperidin-4-ylamino]-propan-2-ol], for which, in series [2], the “beta-1 IA (maximal response relative to isoproterenol at 10^-5 M)” value is “(0.1)”. Moreover, in series [1], the pEC50 is 7.22 and the “beta-3 IA (maximal response relative to isoproterenol at 10^-5 M)” value stood at 0.88. Further, the “beta-2 IA (maximal response relative to isoproterenol at 10^-5 M)” value in series [3] is on record as “(0.03)”.

For the molecule `CS(=O)(=O)Nc1cc(C(O)CNC2CCN(S(=O)(=O)c3ccc4oc5ccccc5c4c3)CC2)ccc1O` (stereo not shown) [Example 23, N-(5-(2-[1-(Dibenzofuran-2-sulfonyl)-piperidin-4-ylamino]-1-hydroxy-ethyl}-2-hydroxy-phenyl)-methanesulfonamide], in series [1], the pEC50 is 7.00 and the “beta-3 IA (maximal response relative to isoproterenol at 10^-5 M)” value is listed as 0.88.

On to `CCCCOc1ccc(S(=O)(=O)N2CC(NC[C@H](O)COc3ccc(O)cc3)C2)cc1` [Example 1, 4-{(2S)-3-[1-(4-Butoxy-benzenesulfonyl)-azetidin-3-ylamino]-2-hydroxy-propoxy}-phenol], for which the melting point is 55 to 58 °C. Also, the “beta-1 IA (maximal response relative to isoproterenol at 10^-5 M)” value in series [2] was 0.49. Further, the pEC50 in series [2] (read-out: beta-1 EC50) is 5.80. Moreover, in series [1], the pEC50 is 7.52 and the “beta-3 IA (maximal response relative to isoproterenol at 10^-5 M)” value is listed as 0.82. Further, the “beta-2 IA (maximal response relative to isoproterenol at 10^-5 M)” value in series [3] was 0.39. Further, the pEC50 in series [3] (read-out: beta-2 EC50) is 6.05.
